# ChEMBL document CHEMBL5500328, “Comprehensive review on the elaboration of payloads derived from natural products for antibody-drug conjugates” (Eur J Med Chem, 2024)
# Legend:
# CCRF-CEM = assay: Cytotoxicity against human CCRF-CEM cells assessed as reduction in cell growth; type: functional, cell-based
# KB 3-1 = assay: Cytotoxicity against human KB-3-1 cells assessed as inhibition of cell growth; type: functional, cell-based
# Tubulin = assay: Binding affinity to tubulin (unknown origin) assessed as dissociation constant by SPR analysis; type: protein-complex assay, Homo sapiens
# [1] = Cytotoxicity against human L540cy assessed as reduction in cell growth incubated for 4 days by CellTiter-Glo assay; type: functional, cell-based; conditions: 96 h
# KB = assay: Cytotoxicity against human KB cells assessed as reduction in cell viability; type: functional, cell-based
# LoVo = assay: Cytotoxicity against human LoVo cells; type: functional, cell-based
smiles,measurement,setting,value
COc1ccc(C[C@H]2NC(=O)/C=C/C[C@@H]([C@H](C)[C@H]3O[C@H]3c3ccc(F)cc3)OC(=O)[C@H](CC(C)C)OC(=O)C(C)(C)CNC2=O)cc1Cl,IC50,CCRF-CEM,0.033 nM
COc1ccc(C[C@H]2NC(=O)/C=C/C[C@@H]([C@H](C)[C@H]3O[C@H]3c3ccccc3)OC(=O)[C@H](CC(C)C)OC(=O)C(C)(C)CNC2=O)cc1Cl,IC50,KB 3-1,0.015 nM
same,Kd,Tubulin,47 nM
CC[C@@]1(O)C(=O)OCc2c1cc1n(c2=O)Cc2cc3c(CN)c4c(cc3nc2-1)OCO4,IC50,[1],1 nM
COc1ccc(C[C@H]2NC(=O)/C=C/C[C@@H]([C@H](C)[C@H]3O[C@H]3c3ccccc3)OC(=O)[C@H](CC(C)C)OC(=O)[C@H](C)CNC2=O)cc1Cl [CRYPTOPHYCIN 39],IC50,KB,0.00458 nM
same,IC50,LoVo,0.00763 nM
